Where two headings read alike, the source gives them in different places.
Experiments:
[1] = pH of the suspension containing MB; type: physicochemical
[2] = cited from earlier work
[3] = system: Staphylococcus epidermidis biofilm; test: Removal of biofilm from titanium disks, safranin staining; type: cell-based; settings: two minutes exposure
Description: Chemically pure (cp) titanium disks with a diameter of 6.2 mm and a height of 2 mm were used. […] After production, the disks were washed with NaOH at 40% v/v and HNO3 at 50% v/vin an ultrasonic bath to remove contaminants, then were washed with deionised water to reach a neutral pH and stored at room temperature in 70% v/v ethanol. Thereafter, the coins were placed in Eppendorf tube and steam autoclaved for sterilization.
Four chemical decontamination agents were selected for the in vitro testing: sterile saline H2O (VWR, Oslo, Norway), Chlorhexidine, 3% v/v H2O2(VWR, Oslo, Norway), a mixture of 3% v/v H2O2 and 2 g/L TiO2 (2 g nano-particles: P25 Aeroxide, Degussa Evonik, Evonik Industries AG, Essen, Germany).
15 sterile titanium disks per groups were inoculated. […] The amount of biofilm present on the surface of the titanium samples was assessed by using the safranin staining method: 10 min exposure to a 0.1% solution of safranin, then rinsed with distilled water, air dried, and exposed to a solution of 30% acetic acid to release the colored biomass from the titanium surfaces. The intensity of the staining was analyzed using a Synergy HT Multi-Detection Microplate Reader (Biotek, VT, USA) with a wavelength of 530 nm.

[4] = Description: Methylene blue (MB) is a heterocyclic aromatic chemical compound with molecular formula: C16H18N3SCl (SigmaAldrich, Oslo, Norway). It has many uses in a range of different fields, such as biology and chemistry. […] A degradation of MB therefore can be used as a model for the in vivo degradation of organic material, such as bacteria, or dead, damaged, and/or infected tissue. At room temperature, it appears as a solid, odourless, dark green powder, that yields a blue solution when dissolved in water. When degraded in solution, methylene blue becomes colourless.
When methylene blue is analysed by UV-vis spectrophotometry (Lambda 25, Perkin Elmer, USA), it absorbs light at […]. This machine was used to quantify the degradation of MB.
The aim was to measure if methylene blue could be degraded by H2O2(PERDROGEN® 30% H2O2 (v/v), Sigma Aldrich AS, Oslo, Norway) at 5% only, without ACP in a composite hydrogel formulation comprising poloxamers (Sigma Aldrich AS, Oslo, Norway) at a concentration of 5% w/v. Then, an increasing concentration of amorphous calcium phosphates ACP (by mixing two precursor components. Component A contained MB in a mixture of mono- and dibasic ammonium phosphate at pH 5.5.) was added to the solution until a maximum concentration of 8 g/L.
The measurements were taken every 3 minutes for one hour. The pH of the suspension containing MB was also registered. […]

pH of the suspension ([1]; ACP suspension with MB, with H2O2 at 15% v/v): 3.3 | pH of the suspension ([1]; H2O2 suspension with MB, without ACP): 3.7 | MB degradation ([4]; adding 5% v/v H2O2 to the ACP suspension): increased the MB degradation
SMILES: OO [H2O2, Hydrogen peroxide]
effect on wound healing ([2]; 0.03% v/v solution, only if not applied repeatedly): may induce healing | effect on wound healing ([2]; 0.5% v/v solution): impede healing | biofilm removal with higher concentration [3]: increased the biofilm removal | MB degradation ([4]; increasing concentration of H2O2 in the ACP suspension): increased the MB degradation in a linear way

— patent US12685749B2, “Multi-functional cleaning and/or debridement composition” (CORTICALIS AS, priority 2021, dated 2026)
